In one experiment the test system is WT E. coli. The experiment can be described thus: Whole-cell probe labeling coupled to flow cytometry/FACS, E. coli only. It is filed as cell-based. The settings on record: 50 μM.
For experiment [1], the target named is β-glucuronidase (uidA) (Escherichia coli, UniProt P05804). It is filed as cell-based, E. coli.
Experiment [2] concerns β-glucuronidase (uidA). It is filed as cell-based, E. coli. The settings on record: ΔuidA strain lacking β-glucuronidase.
For experiment [3], the system named is Lactobacillus plantarum, which lacks a β-glucuronidase. Kind of experiment: Whole-cell probe labeling coupled to flow cytometry/FACS, L. plantarum only. Particulars: 50 μM. The format is cell-based.
The subject of experiment [4] is β-glucuronidases from Escherichia coli, Streptococcus agalactiae, and Clostridium perfringens. It is filed as biochemical. Particulars: wild-type enzymes; fluorescence SDS-PAGE.
Experiment [5] has as its system mix of WT E. coli and L. plantarum. The experiment can be described thus: Whole-cell probe labeling coupled to flow cytometry/FACS, mix of E. coli and L. plantarum. It is filed as cell-based, Lactobacillus plantarum.
Another experiment concerns gut microbiota. The format is in vivo, mouse.
Experiment [6] has as its system glucuronidase activity in the gut microbiome. The format is in vivo, mouse. The settings on record: in 4 of 5 sets of littermates; vancomycin in water vs water. On the procedure: Microbial cells from the mouse gut were suspended in PBS with a protease inhibitor (COMPLETE® EDTA-free Protease Inhibitor, ROCHE®) and lysed via bead beating (BULLET BLENDER®). β-glucuronidase assays were conducted as previously described with modifications. Briefly, 4-methylumbelliferyl-β-D-glucuronide (4-MUG; 1 mM) was added to 50 μL lysate (0.9 μg total protein) for a final concentration of 500 μM. At specific time points (0-240 minutes), 10 μL aliquots of each reaction were added to 90 μL of 0.1 M […] (pH=10) and stored in the dark. Fluorescence was measured using a plate reader (MOLECULAR BIOSCIENCES®), and the amount of hydrolyzed substrate was calculated relative to a standard curve. The rate (mM/s) was determined via linear regression (GRAPHPAD® PRISM®), and activity was calculated as rate per μg protein. Values from three independent replicates were averaged, and activity was compared across biological replicates (n=5) using a ratio paired t-test.
Pairs of littermates were exposed to water with or without vancomycin, an antibiotic known to target Firmicutes in the gut microbiota (FIG. 12). As Firmicutes made up most the probe-positive taxa in the non-treated mice (FIG. 13), vancomycin treatment may shift the GlcA-ABP+ population composition. […] Accordingly, the intensity of GlcA-ABP+ labeling decreased as well (FIG. 14B).

The mark [7] stands for this setting: vancomycin-treated vs untreated littermates.

Chain of β-glucuronidase (uidA) (Escherichia coli, UniProt P05804) (P05804 whole entry): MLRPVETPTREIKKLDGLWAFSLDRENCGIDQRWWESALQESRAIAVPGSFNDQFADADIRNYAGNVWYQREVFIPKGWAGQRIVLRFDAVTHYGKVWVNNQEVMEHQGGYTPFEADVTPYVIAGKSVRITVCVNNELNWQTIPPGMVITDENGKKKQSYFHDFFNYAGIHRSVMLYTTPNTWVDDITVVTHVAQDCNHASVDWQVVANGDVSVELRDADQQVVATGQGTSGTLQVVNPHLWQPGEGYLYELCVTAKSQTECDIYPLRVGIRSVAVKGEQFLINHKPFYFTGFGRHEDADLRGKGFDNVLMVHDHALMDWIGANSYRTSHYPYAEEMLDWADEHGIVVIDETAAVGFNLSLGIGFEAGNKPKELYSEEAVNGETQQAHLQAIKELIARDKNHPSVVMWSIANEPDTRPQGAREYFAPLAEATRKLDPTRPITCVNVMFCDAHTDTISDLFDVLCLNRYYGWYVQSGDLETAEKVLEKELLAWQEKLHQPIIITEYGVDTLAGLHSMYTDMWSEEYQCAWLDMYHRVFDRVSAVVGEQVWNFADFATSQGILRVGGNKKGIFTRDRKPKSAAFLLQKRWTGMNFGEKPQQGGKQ

Regarding `C#CCCCC(=O)Nc1ccc(OC2OC(C(=O)O)C(O)C(O)C2O)c(C(F)F)c1` (stereo not drawn) [GlcA-ABP, 6-(2-(difluoromethyl)-4-(hex-5-ynamido)phenoxy)-3,4,5-trihydroxytetrahydro-2H-pyran-2-carboxylic acid], the “cell labeling, flow cytometry” value with WT E. coli is listed as “labeling was observed”; in experiment [3], “none”; in experiment [5] (mixture of E. coli and L. plantarum, 50 μM) it was “an intermediate amount”. The “labeling in ΔuidA complemented with uidA” value on β-glucuronidase (uidA) [1] (SDS-PAGE and flow cytometry) is reported as “restoration of labeling”. Besides, the “labeling of β-glucuronidase in wild type (WT) E. coli” value at β-glucuronidase (uidA) [1] (WT E. coli, SDS-PAGE) was “Dose-dependent labeling”. Besides, in the experiment on β-glucuronidase (uidA) [2], the “labeling in ΔuidA E. coli” value was “no labeling”. Further, in experiment [4], the “GlcA-ABP labeling intensity of purified β-glucuronidases” value was “corresponded with the catalytic efficiency of these enzymes”.
As to `C#CCCCCNC(=O)CI` [IAA, iodoacetamide alkyne, reference compound], the “cell labeling by positive control probe, flow cytometry” value in experiment [5] (E. coli only, L. plantarum only, or mix, 10 μM) was “all cells were labeled”.
On to `CN[C@H](CC(C)C)C(=O)N[C@H]1C(=O)N[C@@H](CC(N)=O)C(=O)N[C@H]2C(=O)N[C@H]3C(=O)N[C@H](C(=O)N[C@H](C(=O)O)c4cc(O)cc(O)c4-c4cc3ccc4O)[C@H](O)c3ccc(c(Cl)c3)Oc3cc2cc(c3O[C@@H]2O[C@H](CO)[C@@H](O)[C@H](O)[C@H]2O[C@H]2C[C@](C)(N)[C@H](O)[C@H](C)O2)Oc2ccc(cc2Cl)[C@H]1O` [Vancomycin, vancomycin], for which, in the experiment with gut microbiota (setting [7]), the “relative abundance of Firmicutes” value was “dramatically decreased”; the “relative abundance of Proteobacteria, Verrucomicrobia, and Bacteroidetes” value is “corresponding increase”. Also, the “intensity of GlcA-ABP+ labeling after treatment” value in the experiment with gut microbiota (vancomycin-treated vs untreated mice) is given as “decreased”. Also, in experiment [6], the “glucuronidase activity in gut microbiome after treatment” value is recorded as “reduced, but did not eliminate”.

(Values after patent US20190086410A1, “FUNCTION-BASED PROBES FOR ENVIRONMENTAL MICROBIOME ANALYSIS AND METHODS OF MAKING AND USING THE SAME” (Battelle Memorial Institute, priority 2017, published 2019).)
